This is an account of results in US4338433A, “Moranoline derivatives and process for preparation thereof” (Nippon Shinyaku Co. Ltd., priority 1979, dated 1982).

In assay [1] the test system is blood sugar levels. Briefly: Effect of controlling increase of blood sugar levels in sucrose-loaded rats. The class given is in vivo, rats of the SD series. The conditions noted are these: Rattus norvegicus, po, 3 h; 2 g/Kg sucrose and 5 mg/Kg test compound orally; ΔAUC over 180 minutes; male SD rats; read-out: Blood Level Increase Inhibition Ratio (%). How it is done: [Effect of Controlling Increase of Blood Sugar Levels]
Five-week-old male rats of the SD series are divided into groups, each consisting of 4 rats, and 2 g/Kg of sucrose and 5 mg/Kg of the test compound are orally administered. Blood is collected from the tail veins at predetermined intervals over a period of 180 minutes from the point of administration and the blood level values are measured. The area (ΔAUC) below the time-blood level increase curve is determined. The blood level increase inhibition ratio of the test compound is calculated from the basal value obtained in the group to which water alone has been administered and the control value obtained in the group to which sucrose alone has been administered according to the following formula: [formula]

The target in assay [2] is T1, α-1,4-glucanglucohydrolase (glucoamylase) (Rhizopus arrhizus, UniProt P07683).
T1 sequence (P07683 26-604): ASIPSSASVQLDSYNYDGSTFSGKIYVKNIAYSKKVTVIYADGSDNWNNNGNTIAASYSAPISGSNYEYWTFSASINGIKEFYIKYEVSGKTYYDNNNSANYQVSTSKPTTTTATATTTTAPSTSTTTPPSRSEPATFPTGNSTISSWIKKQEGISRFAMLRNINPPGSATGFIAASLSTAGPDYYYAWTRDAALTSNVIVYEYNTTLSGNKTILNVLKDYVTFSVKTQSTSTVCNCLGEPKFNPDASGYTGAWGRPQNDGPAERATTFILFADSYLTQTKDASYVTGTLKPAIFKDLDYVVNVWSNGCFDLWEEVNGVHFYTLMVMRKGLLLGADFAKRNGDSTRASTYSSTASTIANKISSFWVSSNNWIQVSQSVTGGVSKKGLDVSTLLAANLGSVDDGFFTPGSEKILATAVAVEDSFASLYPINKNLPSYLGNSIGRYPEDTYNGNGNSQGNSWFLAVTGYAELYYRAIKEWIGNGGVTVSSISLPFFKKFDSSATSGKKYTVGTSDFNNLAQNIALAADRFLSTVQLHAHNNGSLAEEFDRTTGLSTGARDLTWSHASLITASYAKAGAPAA
Briefly: Inhibition of α-1,4-glucanglucohydrolase (glucoamylase), soluble starch substrate. To be noted: read-out: percent inhibition at parenthesized concentration; for inhibition at 200 µg/mL: at 200 μg/ml (printed >200 μg/ml). Type of assay: biochemical. How it is done:
Moranoline, N-lower-alkylmoranolines, oligoglycosylmoranolines and N-lower-alkyloligoglucosylmoranolines inhibit the activity of α-1,4-glucanglucohydrolase. The inhibition is determined according to the following method.
Glucoamylase (crystal) derived from Rhizopus nivens (supplied by Seikagaku Kogyo K. K.) is dissolved in distilled water so that the concentration is 50 μg/ml and the enzyme is used in the form of the so obtained solution.
Soluble starch is dissolved in a buffer solution at a high temperature so that the concentration is 1.4%, and the solution is cooled to room temperature and used.
0.1 M phosphate buffer solution (pH=5.7)
The starting liquid is incubated at 40° C. for 10 minutes, and 1 ml of a 0.3 N solution of Ba(OH)2 and 1 ml of a 5% solution of ZnSO4 are added. Centifugal separation is conducted under a load of 2000×g for 10 minutes, and 30 μl of the supernatant is sampled and 3 ml of a glucose color reagent (supplied by Boelunger Mannheim Co.; new blood sugar test) was added to the supernatant. The mixture was allowed to stand at room temperature for 35 minutes and the absorbance at 420 nm is measured. The percent inhibition is calculated according to the following formula: [formula] wherein C stands for the absorbance of the control, T stands for the absorbance of the test sample, B' stands for the absorbance of the blank (I), and B stands for the absorbance of the blank (II).
The percent inhibition is also determined in respect of dilutions, and the concentration (IC50) providing 50% inhibition is found. In Table 4, the percent inhibition obtained at a parenthesized concentration is shown when the inhibition is low.

Assay [3] deals with T2, α-1,4-glucanglucohydrolase (Rhizopus arrhizus, UniProt P07683).
T2 sequence (P07683 26-604): T1 sequence (P07683 26-604)
Briefly: Decomposition of the substance by α-1,4-glucanglucohydrolase (glucose release). Type of assay: biochemical. The text has this:
Practically, reactions of the respective stages are advanced on a mixture of compounds differing in the glucose number (m). Accordingly, in order to accumulate intended G-MR in the liquid reaction mixture, it is indispensable that rate constants should be sufficiently high but the rate constant k1 should be sufficiently low. FIG. 4 clarifies this point. FIG. 4 will now be explained. A predetermined amount of N-methyloligoglycosylmoranoline is adsorbed on 1 g of Dowex 50W×2 (H^+) in an Erlenmeyer flask having a capacity of 125 ml, and they are suspended in 50 ml of distilled water and 10 mg of α-1,4-glucanglucohydrolase is added to the suspension. Incubation is carried out at 40° C., and 500 μl of the liquid is sampled at predetermined intervals and the amount of glucose is determined. When maltose is used as the substrate, it is mixed with 1 g of Dowex 50W×2 (H^+) and in this state, incubation is carried out at 40° C.
1 ml of 0.3 N Ba(OH)2 and 1 ml of 5% ZnSO4 are added to 500 μl of the reaction mixture liquid and centifugal separation is carried out under a load of 2000 g for 10 minutes. 30 μl of the supernatant is taken and 3 ml of a commercially available glucose color reagent (manufactured by Boehunger Mannheim Co.; new blood sugar test) is added to the sampled supernatant. The mixture is sufficiently stirred and allowed to stand at room temperature for 35 minutes and the absorbance at 420 nm is measured. Separately, a glucose reference reagent (9.1 mg/dl) is similarly treated and the absorbance at 420 nm is measured. Based on these measurements, the amount of glucose formed in the reaction mixture liquid is determined.
About 22 units/mg of α-1,4-glucanglucohydrolase (crystal) derived from Rhizopus niveus (supplied by Seikagaku Kogyo K.K.)
The reaction time is plotted on the abscissa and the ratio of decomposition based on complete decomposition of glucose is plotted on the ordinate. […] After determination of the amount of glucose, the reaction liquid is filtered and the ion exchange resin (Dowex 50W×2) is collected, washed with water sufficiently and eluted with 0.5 N aqueous ammonia. The eluate is concentrated under reduced pressure and dried to the solid. The solid is dissolved in distilled water and subjected to high speed liquid chromatography (Model ALC/GPC-244 supplied by Waters Co., μ-Bondapak NH2 column, acetonitrile/water=70/30, 1.5 cc/min), and the reaction product is identified by a chromatopac Model C-R1A supplied by Shimadzu Seisakusho K. K. The ratios of formation of N-methylmoranoline are […] in case of 4-(α-D-glucosyl)-N-methylmoranoline, 4-(α-D-amltosyl)-N-methylmoranoline, 4-(α-D-maltotriosyl)-N-methylmoranoline and 4-(α-D-maltotetraosyl)-N-methylmoranoline, respectively. […]

Take `OC[C@H]1NC[C@H](O)[C@@H](O)[C@@H]1O[C@H]1O[C@H](CO)[C@@H](O[C@H]2O[C@H](CO)[C@@H](O)[C@H](O)[C@H]2O)[C@H](O)[C@H]1O` [4-(α-D-maltosyl)-moranoline]: in assay [1], the inhibition in vivo at 5 mg/kg came out at 35%. Also, in assay [2], the inhibition at 200 µg/mL was 0%.

On to `OC[C@H]1NC[C@H](O)[C@@H](O)[C@@H]1O` [moranoline, Moranoline], for which, in assay [1], the inhibition in vivo at 5 mg/kg came out at 19%.

As to `OC[C@H]1NC[C@H](O)[C@@H](O)[C@@H]1O[C@H]1O[C@H](CO)[C@@H](O)[C@H](O)[C@H]1O` [4-(α-D-glucosyl)-moranoline], the inhibition in vivo at 5 mg/kg in assay [1] worked out at 44%. Besides, the inhibition at 200 µg/mL in assay [2] stood at 15%. Moreover, the “decomposition by α-1,4-glucanglucohydrolase (in words)” value (“decomposition” below) in assay [3] (qualitative statement, FIG. 4) is on record as “hardly decomposed”.

Consider `OC[C@H]1O[C@H](O[C@H]2[C@H](O)[C@@H](O)C(O)O[C@@H]2CO)[C@H](O)[C@@H](O)[C@@H]1O` (stereo partly shown) [maltose, reference compound], for which the “decomposition” value in assay [3] (in 1 hour, 40° C., mixed with Dowex 50W×2 (H+)) is listed as “decomposed substantially completely”; in assay [3] (qualitative statement, FIG. 4) it was “promptly decomposed to glucose”.

Take `OC[C@H]1NC[C@H](O)[C@@H](O)[C@@H]1O[C@H]1O[C@H](CO)[C@@H](O[C@H]2O[C@H](CO)[C@@H](O[C@H]3O[C@H](CO)[C@@H](O[C@H]4O[C@H](CO)[C@@H](O)[C@H](O)[C@H]4O)[C@H](O)[C@H]3O)[C@H](O)[C@H]2O)[C@H](O)[C@H]1O` [4-(α-D-maltotetraosyl)-moranoline]: the inhibition in vivo at 5 mg/kg in assay [1] stood at 56%. Also, in assay [2], the inhibition at 200 µg/mL stood at 0%.

For the compound `CN1C[C@H](O)[C@@H](O)[C@H](O[C@H]2O[C@H](CO)[C@@H](O[C@H]3O[C@H](CO)[C@@H](O[C@H]4O[C@H](CO)[C@@H](O[C@H]5O[C@H](CO)[C@@H](O[C@H]6O[C@H](CO)[C@@H](O)[C@H](O)[C@H]6O)[C@H](O)[C@H]5O)[C@H](O)[C@H]4O)[C@H](O)[C@H]3O)[C@H](O)[C@H]2O)[C@H]1CO` [4-(α-D-maltopentaosyl)-N-methylmoranoline], the inhibition in vivo at 5 mg/kg in assay [1] worked out at 23%.

Regarding `OC[C@H]1NC[C@H](O)[C@@H](O)[C@@H]1O[C@H]1O[C@H](CO)[C@@H](O[C@H]2O[C@H](CO)[C@@H](O[C@H]3O[C@H](CO)[C@@H](O)[C@H](O)[C@H]3O)[C@H](O)[C@H]2O)[C@H](O)[C@H]1O` [4-(α-D-maltotriosyl)-moranoline], the inhibition in vivo at 5 mg/kg in assay [1] amounted to 31%. In addition, the inhibition at 200 µg/mL in assay [2] amounted to 0%.

For `CCN1C[C@H](O)[C@@H](O)[C@H](O[C@H]2O[C@H](CO)[C@@H](O[C@H]3O[C@H](CO)[C@@H](O)[C@H](O)[C@H]3O)[C@H](O)[C@H]2O)[C@H]1CO` [4-(α-D-maltosyl)-N-ethylmoranoline], in assay [1], the inhibition in vivo at 5 mg/kg turned out to be 35%.

For the compound `CN1C[C@H](O)[C@@H](O)[C@H](O[C@H]2O[C@H](CO)[C@@H](O[C@H]3O[C@H](CO)[C@@H](O[C@H]4O[C@H](CO)[C@@H](O)[C@H](O)[C@H]4O)[C@H](O)[C@H]3O)[C@H](O)[C@H]2O)[C@H]1CO` [4-(α-D-maltotriosyl)-N-methylmoranoline], the inhibition in vivo at 5 mg/kg in assay [1] stood at 29%.

As for `CCCN1C[C@H](O)[C@@H](O)[C@H](O[C@H]2O[C@H](CO)[C@@H](O)[C@H](O)[C@H]2O)[C@H]1CO` [4-(α-D-glucosyl)-N-propylmoranoline], the inhibition in vivo at 5 mg/kg in assay [1] amounted to 24%.

In the case of `CN1C[C@H](O)[C@@H](O)[C@H](O[C@H]2O[C@H](CO)[C@@H](O[C@H]3O[C@H](CO)[C@@H](O[C@H]4O[C@H](CO)[C@@H](O[C@H]5O[C@H](CO)[C@@H](O)[C@H](O)[C@H]5O)[C@H](O)[C@H]4O)[C@H](O)[C@H]3O)[C@H](O)[C@H]2O)[C@H]1CO` [4-(α-D-maltotetraosyl)-N-methylmoranoline], the inhibition in vivo at 5 mg/kg in assay [1] was 25%.

`CN1C[C@H](O)[C@@H](O)[C@H](O[C@H]2O[C@H](CO)[C@@H](O[C@H]3O[C@H](CO)[C@@H](O)[C@H](O)[C@H]3O)[C@H](O)[C@H]2O)[C@H]1CO` [4-(α-D-maltosyl)-N-methylmoranoline]: in assay [1], the inhibition in vivo at 5 mg/kg is 62%.

In the case of `CN1C[C@H](O)[C@@H](O)[C@H](O[C@H]2O[C@H](CO)[C@@H](O)[C@H](O)[C@H]2O)[C@H]1CO` [4-(α-D-glucosyl)-N-methylmoranoline], the inhibition in vivo at 5 mg/kg in assay [1] was 56%. Further, in assay [3] (qualitative statement, FIG. 4), the “decomposition” value is “extremely small”.

`CCN1C[C@H](O)[C@@H](O)[C@H](O[C@H]2O[C@H](CO)[C@@H](O)[C@H](O)[C@H]2O)[C@H]1CO` [4-(α-D-glucosyl)-N-ethylmoranoline]: the inhibition in vivo at 5 mg/kg in assay [1] came out at 22%. For the same compound, the inhibition at 800 µg/mL in assay [2] (at 800 μg/ml (printed >800 μg/ml)) was 38%.
